We go through eleven molecules from ChEMBL document CHEMBL1201862, “PubChem BioAssay data set” (2004).

What all share (assay): DTP human tumour cell line panel, 48 h
Test [1] relates to SF-539.
Test [2] has as its system MOLT-4.
Test [3] concerns PC-3.
Test [4] concerns SK-MEL-28.
Test [5] deals with BT-549.
Test [6] deals with ACHN.
The test system of test [7] is SNB-19.
Test [8] concerns M14.
The subject of test [9] is SK-OV-3.
The test system of test [10] is OVCAR-4.
The test system of test [11] is SW-620.
Test [12] concerns HT-29.
In test [13] the test system is MDA-MB-231.
Test [14] deals with OVCAR-8.
Test [15] has as its system LOX IMVI.
The subject of test [16] is HL-60.
The test system of test [17] is 786-0.
Test [18] deals with RPMI-8226.
Test [19] concerns SK-MEL-5.

As a reminder, the GI50 is the concentration at which growth is held to half of that of the control.

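These data come from cells grown in 96-well plates and exposed to compound for 48 hours at five concentrations. GI50 is the concentration that inhibits growth by half.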 Active and inactive are the calls of the source. No stated cut-off is given here; in the data, active = GI50 up to about 1.1 µM and inactive = higher.

In the case of `NC(=S)N/N=C(/C(=O)Nc1nc2ccc([N+](=O)[O-])cc2s1)C1C(=O)NC(=S)NC1=O`, the GI50 in [1] is 49 µM (inactive); in test [2], > 100 µM (inactive); in [3], 63.1 µM (inactive); in test [4] it was > 100 µM (inactive); in test [5], 70.1 µM (inactive); in test [6], 59.4 µM (inactive). Besides, the GI50 in test [7] is 76.6 µM (inactive); in test [8], > 100 µM (inactive); in test [9] it was > 100 µM (inactive); in test [10], 23.7 µM (inactive); in test [11], > 100 µM (inactive); in test [12], > 100 µM (inactive). For the same molecule, the GI50 in [13], in test [14], in test [15], in [16], in [17] and in [18] was > 100 µM (inactive) throughout.

As to `COc1cc(/C=N/c2ccc(S(N)(=O)=O)cc2)cc(OC)c1`, the GI50 in test [1] was 25.3 µM (inactive); in [2], 36.9 µM (inactive); in test [3], > 50 µM (inactive); in test [4], > 50 µM (inactive); in test [5] it was > 50 µM (inactive); in test [6], > 50 µM (inactive). Moreover, the GI50 in test [7], in test [8], in [19], in test [9], in [10] and in test [12] was > 50 µM (inactive) each time. For the same molecule, the GI50 in test [13] was 20.1 µM (inactive); in [14] it was > 50 µM (inactive); in [15] it was 46.6 µM (inactive); in test [16] it was 13.6 µM (inactive); in [17] it was > 50 µM (inactive); in test [18] it was 28 µM (inactive).

Regarding `Nc1ccc(C2SCC(=O)N2NS(=O)(=O)c2cccc(C(=O)O)c2)cc1` (centres undefined), the GI50 in test [1], in test [2], in [3], in [4], in test [5] and in test [6] was > 100 µM (inactive) each time. The GI50 in test [7], in [8], in test [19], in [9], in test [11] and in test [12] was > 100 µM (inactive) each time. Besides, the GI50 in test [13] was > 100 µM (inactive); in [14] it was > 100 µM (inactive); in [15], > 100 µM (inactive); in [16], > 100 µM (inactive); in test [17] it was > 100 µM (inactive); in [18], 10.4 µM (inactive).

Consider `NC(=O)NC(=O)c1cccc(CNc2ccc(C(=O)N[C@@H](CCC(=O)O)C(=O)O)cc2)n1`, for which the GI50 in test [1], in test [2], in test [3], in test [4], in test [5] and in test [6] was > 100 µM (inactive) in each case. The GI50 in test [8], in [19], in test [9], in test [10], in test [11] and in test [12] was > 100 µM (inactive) throughout. Besides, the GI50 in test [13], in test [14], in test [15], in test [16], in test [17] and in test [18] was > 100 µM (inactive) in each case.

`CCCCc1c(OC)cc(O)c2c1C(=O)c1[nH]c(C(=O)O)c(O)c(=O)c1C2=O`: the GI50 in [1] is 0.499 µM (active); in test [2], 19.8 µM (inactive); in test [3], 6.12 µM (inactive); in test [4], 4.11 µM (inactive); in test [5] it was 4.47 µM (inactive); in test [6], 2.27 µM (inactive). The GI50 in test [7] is 2.25 µM (inactive); in test [8], 4.83 µM (inactive); in test [9], 4.35 µM (inactive); in test [10] it was 18.3 µM (inactive); in test [11] it was 83 µM (inactive); in test [12], > 100 µM (inactive). For the same molecule, the GI50 in test [13] was 0.847 µM (active); in [14], 2.27 µM (inactive); in [15], 4.01 µM (inactive); in [16], 1.56 µM (inactive); in test [17], 1.62 µM (inactive); in test [18] it was > 100 µM (inactive).

Regarding `O=CN1CCN(C(=O)c2ccc(Cl)c(Cl)c2)C1=S`, the GI50 was 20.7 µM (inactive) in test [1]; 22.8 µM (inactive) in [2]; 14.7 µM (inactive) in [3]; 18.2 µM (inactive) in test [4]; 18 µM (inactive) in [5]; 17.3 µM (inactive) in test [6]. Further, the GI50 in [7] was 17.5 µM (inactive); in test [8] it was 16.8 µM (inactive); in test [9], 18.9 µM (inactive); in [10], 18.2 µM (inactive); in test [11], 19.4 µM (inactive); in test [12], 19.4 µM (inactive). Further, the GI50 in test [13] was 14.6 µM (inactive); in test [14], 15 µM (inactive); in test [15], 9.29 µM (inactive); in [16], 24.6 µM (inactive); in [17], 4.53 µM (inactive); in [18] it was 2.84 µM (inactive).

Take `CCSC1=N/C(=C\c2ccco2)C(NN)=N1`: the GI50 in test [1], in [2], in test [3], in [4], in [5] and in test [6] was > 50 µM (inactive) each time. For the same molecule, the GI50 in [7], in test [8], in [19], in [9], in test [11] and in test [12] was > 50 µM (inactive) each time. Besides, the GI50 in [13], in test [14], in test [15], in [16], in test [17] and in [18] was > 50 µM (inactive) throughout.

Regarding `COc1cc(CNc2nc3ccccc3nc2-c2cccs2)cc(OC)c1OC`, the GI50 in [1] is 78.5 µM (inactive); in [2], 7.67 µM (inactive); in test [3], 11.6 µM (inactive); in test [4], 32.3 µM (inactive); in [5], 3.1 µM (inactive); in test [6], 13.9 µM (inactive). For the same molecule, the GI50 in test [19] was 12.5 µM (inactive); in test [9] it was 29.8 µM (inactive); in test [10], 2.84 µM (inactive); in test [11], 36.7 µM (inactive); in test [12], 26.9 µM (inactive); in test [13], 17.6 µM (inactive). Further, the GI50 in test [14] was 14.3 µM (inactive); in test [15], 17.7 µM (inactive); in [16], 14 µM (inactive); in test [17], 25.2 µM (inactive); in [18], 10.5 µM (inactive).

As for `C=C(C)C1Cc2c(cc(O)c3c(=O)c4c(oc23)C(O)Oc2cc(OC)c(OC)cc2-4)O1` (centres undefined), the GI50 in test [1], in test [2], in test [3], in test [4], in [5] and in test [6] was > 10 µM (inactive) throughout. Further, the GI50 in test [7], in test [8], in test [10], in test [11], in [12] and in test [13] was > 10 µM (inactive) each time. For the same molecule, the GI50 in test [14], in test [16], in [17] and in test [18] was > 10 µM (inactive) each time.

As for `COC1=CC(=O)c2c(CCNC(=O)OCc3ccccc3)n[nH]c2C1=O`, the GI50 in [1] is 17.9 µM (inactive); in test [2], 16.8 µM (inactive); in test [3] it was 30.4 µM (inactive); in test [4], 12.1 µM (inactive); in test [5], 17.5 µM (inactive); in test [6], 14.2 µM (inactive). The GI50 in [7] was 14.7 µM (inactive); in [8], 12.6 µM (inactive); in test [19], 3.97 µM (inactive); in test [11], 19.5 µM (inactive); in test [12], 22.8 µM (inactive); in [13], 17.3 µM (inactive). The GI50 was 23.1 µM (inactive) in test [14]; 4.54 µM (inactive) in test [15]; 16.1 µM (inactive) in [16]; 17.5 µM (inactive) in test [17]; 13 µM (inactive) in test [18].

With `O=C(C/C(=N/O)c1cc(-c2ccccc2)no1)c1ccccc1`, the GI50 in test [1] was 19.3 µM (inactive); in [2], 31.8 µM (inactive); in [3] it was 77.6 µM (inactive); in [4], > 100 µM (inactive); in test [5], 28.7 µM (inactive); in [6], 45 µM (inactive). The GI50 in test [7] was 26.5 µM (inactive); in test [8] it was 85.3 µM (inactive); in test [19] it was 80.9 µM (inactive); in [9], 17.1 µM (inactive); in test [10], 26.5 µM (inactive); in test [12], > 100 µM (inactive). For the same molecule, the GI50 in test [13] was 21.4 µM (inactive); in test [14] it was 21.7 µM (inactive); in [15] it was 36.4 µM (inactive); in test [16] it was 29 µM (inactive); in [17], 22.1 µM (inactive); in test [18] it was > 100 µM (inactive).
